The values below come from ChEMBL document CHEMBL4152237, “Identification of novel β-lactams and pyrrolidinone derivatives as selective Histamine-3 receptor (H3R) modulators as possible anti-obesity agents” (Eur J Med Chem, 2018).

Data set [1] addresses Histamine H4 receptor (Homo sapiens) (UniProt Q9H3N8). In words: Antagonist activity at H4R (unknown origin) expressed in HEK293 cells harboring glosensor-22F cAMP plasmid DNA assessed as effect on forskolin-stimulated cAMP accumulation at 10 uM preincubated with cells followed by forskolin addition measured after 10 mins by luminescence assay. Format: functional, cell-based. A general note: Cyclic AMP is a second messenger, typically raised through Gs and lowered through Gi signalling.

In data set [2] the target is T1, 5-hydroxytryptamine receptor 2C (Homo sapiens) (UniProt P28335).
T1 sequence (whole entry): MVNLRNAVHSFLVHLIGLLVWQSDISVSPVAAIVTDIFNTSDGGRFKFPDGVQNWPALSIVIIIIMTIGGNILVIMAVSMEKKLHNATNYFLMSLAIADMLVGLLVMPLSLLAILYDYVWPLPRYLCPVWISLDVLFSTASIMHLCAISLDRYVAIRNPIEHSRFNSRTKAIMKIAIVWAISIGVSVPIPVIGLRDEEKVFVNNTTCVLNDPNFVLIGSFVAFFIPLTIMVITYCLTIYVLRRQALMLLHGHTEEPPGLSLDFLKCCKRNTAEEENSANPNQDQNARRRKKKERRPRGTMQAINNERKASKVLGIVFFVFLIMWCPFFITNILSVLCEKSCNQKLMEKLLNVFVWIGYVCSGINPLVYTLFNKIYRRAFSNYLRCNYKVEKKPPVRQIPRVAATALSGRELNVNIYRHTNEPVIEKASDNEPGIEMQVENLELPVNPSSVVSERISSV
Kind of data set: Agonist activity at human 5-HT2C expressed in HEK293 cells harboring luc2P/NFAT-RE plasmid at 10 uM after 6 to 8 hrs by luciferase reporter gene assay. Format: functional, cell-based. On the technique in general: In a reporter assay the amount or activity of a reporter protein is the signal.

Data set [3] concerns the target Histamine H4 receptor (Homo sapiens) (UniProt Q9H3N8). In words: Agonist activity at H4R (unknown origin) expressed in HEK293 cells harboring glosensor-22F cAMP plasmid DNA assessed as inhibition of forskolin-stimulated cAMP accumulation at 10 uM preincubated with cells followed by forskolin addition measured after 10 mins by luminescence assay. Format: functional, cell-based.

Data set [4] has as its target Luciferin 4-monooxygenase (Photinus pyralis) (UniProt P08659). Kind of data set: Inhibition of firefly luciferase activity expressed in HEK293 cells assessed as reduction in forskolin-stimulated cAMP accumulation up to 10 uM preincubated with cells followed by forskolin addition measured after 10 mins by luminescence assay. Format: cell-based.
Data set [5] addresses T2, Histamine H3 receptor (Homo sapiens, UniProt Q9Y5N1). Kind of data set: Agonist activity at human H3R expressed in HEK293 cells harboring glosensor-22F cAMP plasmid DNA assessed as inhibition of forskolin-stimulated cAMP accumulation preincubated with cells followed by forskolin addition measured after 10 mins by luminescence assay. It counts as functional, cell-based.

The target in data set [6] is Histamine H2 receptor (Homo sapiens) (UniProt P25021). Kind of data set: Antagonist activity at H2R (unknown origin) expressed in HEK293 cells harboring glosensor-22F cAMP plasmid DNA assessed as effect on forskolin-stimulated cAMP accumulation at 10 uM preincubated with cells followed by forskolin addition measured after 10 mins by luminescence assay. Format: functional, cell-based.
Sequence of Histamine H2 receptor (Homo sapiens) (P25021 whole entry): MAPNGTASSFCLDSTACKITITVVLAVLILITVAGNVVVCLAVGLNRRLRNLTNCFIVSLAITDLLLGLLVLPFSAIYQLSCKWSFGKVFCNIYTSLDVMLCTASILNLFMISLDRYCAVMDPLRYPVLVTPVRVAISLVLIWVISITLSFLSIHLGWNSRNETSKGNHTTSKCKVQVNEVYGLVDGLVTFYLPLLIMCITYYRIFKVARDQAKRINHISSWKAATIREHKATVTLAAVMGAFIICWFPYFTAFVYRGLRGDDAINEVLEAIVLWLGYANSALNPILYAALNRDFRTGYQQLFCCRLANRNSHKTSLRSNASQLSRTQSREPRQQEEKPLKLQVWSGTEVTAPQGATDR

Data set [7] has as its target Histamine H1 receptor (Homo sapiens) (UniProt P35367). In words: Agonist activity at H1R (unknown origin) expressed in HEK293 cells harboring luc2P/NFAT-RE plasmid at 10 uM after 6 to 8 hrs by luciferase reporter gene assay. It counts as functional, cell-based.
Data set [8] deals with T2, Histamine H3 receptor. In words: Agonist activity at human H3R expressed in HEK293 cells harboring glosensor-22F cAMP plasmid DNA assessed as inhibition of forskolin-stimulated cAMP accumulation at 1 uM preincubated with cells followed by forskolin addition measured after 10 mins in presence of H3R antagonist GSK334429 by luminescence assay. It counts as functional, cell-based.

Data set [9] concerns the target Histamine H2 receptor (Homo sapiens) (UniProt P25021). In words: Agonist activity at H2R (unknown origin) expressed in HEK293 cells harboring glosensor-22F cAMP plasmid DNA assessed as inhibition of forskolin-stimulated cAMP accumulation at 10 uM preincubated with cells followed by forskolin addition measured after 10 mins by luminescence assay. It counts as functional, cell-based.

The target of data set [10] is T1, 5-hydroxytryptamine receptor 2C (Homo sapiens). Kind of data set: Antagonist activity at human 5-HT2C expressed in HEK293 cells harboring luc2P/NFAT-RE plasmid at 10 uM after 6 to 8 hrs by luciferase reporter gene assay. It counts as functional, cell-based.
In data set [11] the test system is HEK-293T. Kind of data set: Cytotoxicity against HEK293T cells assessed as reduction in cell viability at 1 to 10 uM after 24 hrs by XTT assay. Format: cell-based. The settings on record: human. Background: Formazan colour is commonly taken as a measure of viable cells.
The target in data set [12] is Histamine H1 receptor (Homo sapiens) (UniProt P35367). In words: Antagonist activity at H1R (unknown origin) expressed in HEK293 cells harboring luc2P/NFAT-RE plasmid at 10 uM after 6 to 8 hrs by luciferase reporter gene assay. It counts as functional, cell-based.
Sequence of Histamine H1 receptor (Homo sapiens) (P35367 whole entry): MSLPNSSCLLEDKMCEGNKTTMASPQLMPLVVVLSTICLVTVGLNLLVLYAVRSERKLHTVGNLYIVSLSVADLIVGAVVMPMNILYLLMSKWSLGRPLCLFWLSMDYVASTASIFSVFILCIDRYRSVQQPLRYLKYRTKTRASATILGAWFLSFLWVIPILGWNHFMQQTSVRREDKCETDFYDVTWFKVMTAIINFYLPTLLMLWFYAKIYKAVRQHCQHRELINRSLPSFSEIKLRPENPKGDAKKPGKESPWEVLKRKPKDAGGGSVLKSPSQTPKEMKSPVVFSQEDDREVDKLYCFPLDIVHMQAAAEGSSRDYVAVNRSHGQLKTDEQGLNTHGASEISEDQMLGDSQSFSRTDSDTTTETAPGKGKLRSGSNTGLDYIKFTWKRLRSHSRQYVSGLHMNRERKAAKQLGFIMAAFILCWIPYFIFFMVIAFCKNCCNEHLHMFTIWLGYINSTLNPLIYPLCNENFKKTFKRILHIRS

The source made the active and inactive calls. Unless noted, no cut-off for these calls is given here.

T2 sequence (Q9Y5N1 whole entry): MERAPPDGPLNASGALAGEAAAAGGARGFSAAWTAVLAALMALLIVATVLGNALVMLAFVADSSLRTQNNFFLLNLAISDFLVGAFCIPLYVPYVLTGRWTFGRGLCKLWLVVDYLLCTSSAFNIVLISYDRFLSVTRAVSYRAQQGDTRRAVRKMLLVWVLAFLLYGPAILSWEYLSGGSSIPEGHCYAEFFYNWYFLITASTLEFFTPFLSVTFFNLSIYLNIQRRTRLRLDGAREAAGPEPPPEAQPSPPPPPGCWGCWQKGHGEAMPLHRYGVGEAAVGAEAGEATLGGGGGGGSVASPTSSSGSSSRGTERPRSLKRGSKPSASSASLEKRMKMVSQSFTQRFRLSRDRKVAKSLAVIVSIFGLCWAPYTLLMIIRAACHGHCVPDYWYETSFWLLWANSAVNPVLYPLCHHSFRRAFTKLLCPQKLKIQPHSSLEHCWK
Sequence of Luciferin 4-monooxygenase (Photinus pyralis) (P08659 whole entry): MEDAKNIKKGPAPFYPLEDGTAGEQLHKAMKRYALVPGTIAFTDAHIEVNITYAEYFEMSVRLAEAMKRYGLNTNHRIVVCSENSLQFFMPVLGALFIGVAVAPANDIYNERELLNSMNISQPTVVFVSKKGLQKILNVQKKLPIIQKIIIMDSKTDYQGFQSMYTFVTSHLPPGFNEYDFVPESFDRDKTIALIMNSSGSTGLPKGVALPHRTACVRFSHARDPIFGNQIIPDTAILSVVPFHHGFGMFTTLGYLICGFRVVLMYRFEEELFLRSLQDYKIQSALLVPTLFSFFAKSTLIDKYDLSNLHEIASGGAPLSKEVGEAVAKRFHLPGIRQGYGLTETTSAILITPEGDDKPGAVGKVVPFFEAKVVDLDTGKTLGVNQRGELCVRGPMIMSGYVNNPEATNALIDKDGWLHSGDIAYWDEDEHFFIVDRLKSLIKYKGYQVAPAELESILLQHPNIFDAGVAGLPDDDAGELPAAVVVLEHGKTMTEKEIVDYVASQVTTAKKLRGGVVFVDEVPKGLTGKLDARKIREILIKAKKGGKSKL
Sequence of Histamine H4 receptor (Homo sapiens) (Q9H3N8 whole entry): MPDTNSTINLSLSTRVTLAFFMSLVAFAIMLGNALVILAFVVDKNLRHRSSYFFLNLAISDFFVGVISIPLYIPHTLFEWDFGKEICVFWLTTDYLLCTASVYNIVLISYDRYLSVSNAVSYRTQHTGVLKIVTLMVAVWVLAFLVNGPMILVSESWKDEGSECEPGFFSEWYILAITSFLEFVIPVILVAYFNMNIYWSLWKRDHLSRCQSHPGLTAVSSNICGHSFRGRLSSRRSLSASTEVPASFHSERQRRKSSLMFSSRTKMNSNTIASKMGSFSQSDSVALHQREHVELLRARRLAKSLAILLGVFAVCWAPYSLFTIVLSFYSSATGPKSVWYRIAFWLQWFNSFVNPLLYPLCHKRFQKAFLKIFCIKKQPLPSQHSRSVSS

For `COc1ccc(N2C(=O)/C(=C\c3ccccc3)C2(C(=O)NC(C)(C)C)c2ccc(Br)cc2)cc1OC` (centres undefined), the inhibition entry in [1], in data set [3], in [4], in data set [6], in data set [8] and in data set [9] was “inactive” in each case. In addition, the inhibition result in data set [10] and in data set [12] was “inactive” throughout. Besides, the result in data set [2] and in data set [7] was inactive. The EC50 in data set [5] (read-out: EC50) is 24 nM; in data set [5] (read-out: pEC50 (converted)) it was 25.7 nM. In addition, the Activity result in [11] is reported as “Non-Toxic”.
On to `COc1cc(NC2(c3ccccc3Cl)C(=O)N(C(C)(C)C)C(=O)/C2=C/c2ccccc2)cc(OC)c1OC` (centres undefined), for which the inhibition entry in data set [1], in [3], in data set [4], in data set [6], in data set [8] and in data set [9] was “inactive” in each case. Also, the inhibition entry in [10] and in data set [12] was “inactive” in each case. In addition, the result in data set [2] and in data set [7] was inactive. Also, in data set [5] (read-out: EC50), the EC50 stood at 187 nM. Besides, the Activity entry in data set [11] is given as “Non-Toxic”.
As to `O=C1C=C[C@]23C(c4ccccc4)=CC(=O)N2[C@H](c2cc(F)cc(F)c2)C(=O)N[C@@H]3C1`, the inhibition result in data set [1], in data set [3], in data set [4], in [6], in data set [8] and in data set [9] was “inactive” in each case. Also, the inhibition result in data set [10] and in [12] was “inactive” throughout. Also, the outcome in [2] and in data set [7] was inactive. In addition, the EC50 in data set [5] (read-out: EC50) is 10 nM. Further, in [11], the Activity entry is on record as “Non-Toxic”.
For `COc1cc(N2C(=O)C(=Cc3ccccc3)C2(C(=O)NC(C)(C)C)c2ccccc2)cc(OC)c1OC` (centres undefined), the inhibition entry in data set [1], in [3], in [4], in data set [6], in data set [8] and in data set [9] was “inactive” in each case. The inhibition result in data set [10] and in data set [12] was “inactive” throughout. In addition, the outcome in data set [2] and in data set [7] was inactive. Moreover, the EC50 in data set [5] (read-out: EC50) is 0.1 nM. Moreover, in data set [11], the Activity entry was “Non-Toxic”.
`COc1ccc(NC2(c3ccccc3)C(=O)N(C(C)(C)C)C(=O)/C2=C/c2ccccc2)cc1` (centres undefined): the inhibition entry in data set [1], in [3], in data set [4], in [6], in data set [8] and in [9] was “inactive” in each case. In addition, the inhibition result in data set [10] and in [12] was “inactive” throughout. Also, the outcome in data set [2] and in data set [7] was inactive. Moreover, the figures for the EC50 in [5] (read-out: EC50) and in [5] (read-out: pEC50 (converted)) were 3 nM and 22.9 nM, respectively. Besides, the Activity result in [11] is on record as “Non-Toxic”.
For `COc1ccc(NC2(c3cc(F)cc(F)c3)C(=O)N(C3CCCCC3)C(=O)/C2=C/c2ccccc2)cc1` (centres undefined), the inhibition result in [1], in data set [3], in [4], in data set [6], in data set [8] and in [9] was “inactive” throughout. Besides, the inhibition result in [10] and in data set [12] was “inactive” throughout. Besides, the outcome in data set [2] and in [7] was inactive. Moreover, the EC50 in data set [5] (read-out: EC50) is 3.8 nM. The Activity entry in [11] is recorded as “Non-Toxic”.
